Assay results taken from PubChem BioAssay (NCI).
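Cultured in 96-well plates, cells were exposed to test compound for 48 hours across five concentrations. TGI is the concentration that stops growth completely.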

Tests used:
Assay in all cases: DTP human tumour cell line panel, 48 h
HL-60(TB) leukemia = tested on: HL-60(TB) leukemia
NCI-H226 lung = tested on: NCI-H226 lung
NCI-H522 lung = tested on: NCI-H522 lung
UACC-257 melanoma = tested on: UACC-257 melanoma
MDA-MB-435 = tested on: MDA-MB-435
HCT-15 colon = tested on: HCT-15 colon
SF-539 CNS = tested on: SF-539 CNS
HT29 colon = tested on: HT29 colon
CAKI-1 renal = tested on: CAKI-1 renal
LOX IMVI melanoma = tested on: LOX IMVI melanoma
SR leukemia = tested on: SR leukemia
NCI/ADR-RES ovarian = tested on: NCI/ADR-RES ovarian
ACHN renal = tested on: ACHN renal
MCF7 breast = tested on: MCF7 breast
OVCAR-3 ovarian = tested on: OVCAR-3 ovarian
BT-549 breast = tested on: BT-549 breast
NCI-H460 lung = tested on: NCI-H460 lung
OVCAR-8 ovarian = tested on: OVCAR-8 ovarian
SF-295 CNS = tested on: SF-295 CNS
CCRF-CEM leukemia = tested on: CCRF-CEM leukemia
SK-MEL-2 melanoma = tested on: SK-MEL-2 melanoma
HCC-2998 colon = tested on: HCC-2998 colon
SN12C renal = tested on: SN12C renal
K-562 leukemia = tested on: K-562 leukemia
A498 renal = tested on: A498 renal
SK-MEL-28 melanoma = tested on: SK-MEL-28 melanoma
786-0 renal = tested on: 786-0 renal
PC-3 prostate = tested on: PC-3 prostate
DU-145 prostate = tested on: DU-145 prostate
KM12 colon = tested on: KM12 colon
OVCAR-5 ovarian = tested on: OVCAR-5 ovarian
MALME-3M melanoma = tested on: MALME-3M melanoma
MOLT-4 leukemia = tested on: MOLT-4 leukemia
OVCAR-4 ovarian = tested on: OVCAR-4 ovarian
SNB-75 CNS = tested on: SNB-75 CNS
TK-10 renal = tested on: TK-10 renal
RPMI-8226 leukemia = tested on: RPMI-8226 leukemia
RXF 393 renal = tested on: RXF 393 renal
U251 CNS = tested on: U251 CNS
M14 melanoma = tested on: M14 melanoma
UO-31 renal = tested on: UO-31 renal
IGROV1 ovarian = tested on: IGROV1 ovarian
SK-MEL-5 melanoma = tested on: SK-MEL-5 melanoma
MDA-MB-231 breast = tested on: MDA-MB-231 breast
EKVX NSCLC = tested on: EKVX NSCLC
HS 578T breast = tested on: HS 578T breast
HCT-116 colon = tested on: HCT-116 colon
SNB-19 CNS = tested on: SNB-19 CNS
T-47D breast = tested on: T-47D breast
A549 NSCLC = tested on: A549 NSCLC
NCI-H23 lung = tested on: NCI-H23 lung
SF-268 CNS = tested on: SF-268 CNS
HOP-92 NSCLC = tested on: HOP-92 NSCLC
HOP-62 NSCLC = tested on: HOP-62 NSCLC
UACC-62 melanoma = tested on: UACC-62 melanoma

Measured: TGI

CC(=O)N/N=C1/NN(C(C)=O)C2(S1)C(=O)Nc1ccc(Br)cc12 (stereo not given)
> 100 µM: all assays above
